We go through three compounds from patent publication US20240000791A1, “Methods of Using 4-Amino-N-[4-(Methoxymethyl)Phenyl]-7-(1-Methylcyclopropyl)-6-(3-Morpholinoprop-1-YN-1-YL)-7H-Pyrrolo[2,3-D]Pyrimidine-5-Carboxamide for the Treatment of Tumors” (Helsinn Healthcare SA, priority 2020, published 2024).

One assay addresses PDGFRβ (Homo sapiens, UniProt P09619). As to the kind of experiment: Kinase inhibition. The assay is classed as biochemical.
The test system of another assay is Ba/F3 KIF5B-RET G810S. Description: Cell viability CellTiter-Glo 2.0. The assay is classed as cell-based. The settings on record: Mus musculus, read-out: GI50 values.
The next assay addresses FGFR3 (Homo sapiens, UniProt P22607). As to the kind of experiment: Kinase inhibition. The assay is classed as biochemical.
Another assay deals with JAK1 (Homo sapiens, UniProt P23458). Description: Kinase inhibition. The format is biochemical.
Sequence of JAK1 (P23458 whole entry): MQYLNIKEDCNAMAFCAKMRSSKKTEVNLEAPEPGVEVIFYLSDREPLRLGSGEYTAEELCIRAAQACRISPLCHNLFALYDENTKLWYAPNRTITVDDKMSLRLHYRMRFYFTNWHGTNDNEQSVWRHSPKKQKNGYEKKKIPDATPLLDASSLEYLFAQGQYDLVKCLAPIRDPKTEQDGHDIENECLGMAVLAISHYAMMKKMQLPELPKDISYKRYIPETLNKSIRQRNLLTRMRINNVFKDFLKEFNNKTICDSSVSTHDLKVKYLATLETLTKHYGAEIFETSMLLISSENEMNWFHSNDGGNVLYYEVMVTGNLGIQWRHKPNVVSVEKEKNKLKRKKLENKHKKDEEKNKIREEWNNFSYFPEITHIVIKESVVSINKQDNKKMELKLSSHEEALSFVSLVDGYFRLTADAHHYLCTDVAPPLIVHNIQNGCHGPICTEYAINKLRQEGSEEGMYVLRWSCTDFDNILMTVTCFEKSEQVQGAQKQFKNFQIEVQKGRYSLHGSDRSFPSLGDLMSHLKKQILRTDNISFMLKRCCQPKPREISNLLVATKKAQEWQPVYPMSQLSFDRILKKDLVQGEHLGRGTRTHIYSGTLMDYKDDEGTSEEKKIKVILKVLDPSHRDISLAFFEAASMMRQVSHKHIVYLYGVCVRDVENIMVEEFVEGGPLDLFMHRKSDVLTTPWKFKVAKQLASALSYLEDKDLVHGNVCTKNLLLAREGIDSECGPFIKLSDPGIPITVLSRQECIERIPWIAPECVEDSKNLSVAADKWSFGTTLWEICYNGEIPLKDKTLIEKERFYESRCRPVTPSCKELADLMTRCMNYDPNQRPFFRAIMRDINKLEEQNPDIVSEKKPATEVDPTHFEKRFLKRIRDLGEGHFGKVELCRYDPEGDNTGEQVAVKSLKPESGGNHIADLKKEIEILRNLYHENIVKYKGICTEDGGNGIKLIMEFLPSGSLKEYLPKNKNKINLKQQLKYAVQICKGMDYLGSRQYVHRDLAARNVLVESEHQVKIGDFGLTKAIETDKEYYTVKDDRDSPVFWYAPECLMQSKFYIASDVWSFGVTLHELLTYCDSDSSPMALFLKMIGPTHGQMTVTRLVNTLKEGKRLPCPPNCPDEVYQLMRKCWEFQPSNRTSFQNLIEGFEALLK
The target in another assay is FGFR1 (Homo sapiens, UniProt P11362). Description: Kinase inhibition. The assay is classed as biochemical.
Another assay deals with T1, DDR2 (Homo sapiens, UniProt Q16832).
T1 sequence (Q16832 22-855): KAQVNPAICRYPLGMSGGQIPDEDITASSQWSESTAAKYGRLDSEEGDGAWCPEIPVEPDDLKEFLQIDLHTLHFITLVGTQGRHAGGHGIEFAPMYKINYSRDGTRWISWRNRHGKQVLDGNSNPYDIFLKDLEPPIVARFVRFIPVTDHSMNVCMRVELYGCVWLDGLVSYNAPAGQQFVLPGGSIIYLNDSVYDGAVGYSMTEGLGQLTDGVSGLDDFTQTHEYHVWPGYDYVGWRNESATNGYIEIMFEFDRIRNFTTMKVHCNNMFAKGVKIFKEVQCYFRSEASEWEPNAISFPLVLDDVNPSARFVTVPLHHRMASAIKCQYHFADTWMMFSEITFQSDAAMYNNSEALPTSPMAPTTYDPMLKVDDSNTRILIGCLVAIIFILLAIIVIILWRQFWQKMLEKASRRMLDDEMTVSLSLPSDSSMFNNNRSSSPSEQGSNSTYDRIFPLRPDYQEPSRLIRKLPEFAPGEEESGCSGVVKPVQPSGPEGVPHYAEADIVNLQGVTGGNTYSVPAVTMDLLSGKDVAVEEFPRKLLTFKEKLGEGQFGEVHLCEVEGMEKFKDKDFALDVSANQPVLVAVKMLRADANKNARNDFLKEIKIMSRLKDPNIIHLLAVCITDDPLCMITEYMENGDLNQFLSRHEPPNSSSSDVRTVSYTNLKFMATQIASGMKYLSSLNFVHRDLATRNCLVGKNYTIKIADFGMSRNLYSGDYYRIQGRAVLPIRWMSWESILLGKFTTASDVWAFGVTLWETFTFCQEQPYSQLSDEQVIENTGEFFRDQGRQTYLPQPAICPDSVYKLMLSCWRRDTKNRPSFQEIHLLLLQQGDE
Description: Kinase inhibition. The assay is classed as biochemical.

The next assay concerns the target FGFR2 (Homo sapiens, UniProt P21802). Description: Kinase inhibition. The format is biochemical.
A further assay concerns the target DDR1 (Homo sapiens, UniProt Q08345). Description: Kinase inhibition. The assay is classed as biochemical.
A further assay has as its system Ba/F3 KIF5B-RET V804M. Description: Cell viability CellTiter-Glo 2.0. The assay is classed as cell-based. The settings on record: Mus musculus, read-out: GI50 values.
Assay [1] concerns Ba/F3 KIF5B-RET^G810R cells. Description: Ba/F3 KIF5B-RET G810R subcutaneous tumor model, first study. The assay is classed as in vivo, mouse. The settings on record: 14 days; for tumor regrowth at the end of the study: 30 mg/kg bid oral.
The target in a further assay is JAK2 (Homo sapiens, UniProt O60674). Description: Kinase inhibition. The assay is classed as biochemical.
Sequence of JAK2 (O60674 whole entry): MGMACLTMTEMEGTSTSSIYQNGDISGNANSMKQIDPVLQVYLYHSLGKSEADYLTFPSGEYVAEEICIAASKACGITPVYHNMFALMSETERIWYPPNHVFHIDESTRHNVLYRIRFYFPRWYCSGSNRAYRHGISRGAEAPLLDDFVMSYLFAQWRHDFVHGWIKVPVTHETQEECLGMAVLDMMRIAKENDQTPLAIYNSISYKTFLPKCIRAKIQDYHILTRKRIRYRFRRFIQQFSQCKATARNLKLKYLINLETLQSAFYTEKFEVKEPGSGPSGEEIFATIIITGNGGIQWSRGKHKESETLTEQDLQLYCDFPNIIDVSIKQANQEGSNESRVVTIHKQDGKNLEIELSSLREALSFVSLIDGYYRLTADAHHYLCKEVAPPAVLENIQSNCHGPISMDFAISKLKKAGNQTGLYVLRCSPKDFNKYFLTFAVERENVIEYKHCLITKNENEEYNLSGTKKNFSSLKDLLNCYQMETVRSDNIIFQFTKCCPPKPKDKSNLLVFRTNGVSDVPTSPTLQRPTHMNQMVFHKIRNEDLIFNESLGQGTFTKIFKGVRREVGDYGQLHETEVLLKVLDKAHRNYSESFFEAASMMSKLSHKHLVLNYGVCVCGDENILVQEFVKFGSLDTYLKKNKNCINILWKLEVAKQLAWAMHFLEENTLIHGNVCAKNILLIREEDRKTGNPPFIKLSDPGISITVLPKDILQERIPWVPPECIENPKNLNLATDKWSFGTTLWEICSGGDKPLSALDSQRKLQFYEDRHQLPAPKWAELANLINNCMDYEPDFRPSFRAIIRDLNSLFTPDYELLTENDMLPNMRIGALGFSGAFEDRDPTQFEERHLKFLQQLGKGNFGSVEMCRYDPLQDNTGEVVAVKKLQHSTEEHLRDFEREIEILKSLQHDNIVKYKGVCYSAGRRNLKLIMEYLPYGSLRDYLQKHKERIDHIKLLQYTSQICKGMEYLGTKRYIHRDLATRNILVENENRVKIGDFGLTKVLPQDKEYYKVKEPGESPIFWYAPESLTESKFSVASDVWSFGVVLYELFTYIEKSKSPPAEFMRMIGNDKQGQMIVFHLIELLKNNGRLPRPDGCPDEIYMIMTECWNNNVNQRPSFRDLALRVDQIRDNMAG
The next assay addresses PDGFRα (Homo sapiens, UniProt P16234). As to the kind of experiment: Kinase inhibition. The assay is classed as biochemical.
In the next assay the target is T2, FLT3 (Homo sapiens, UniProt P36888).
T2 sequence (P36888 27-993): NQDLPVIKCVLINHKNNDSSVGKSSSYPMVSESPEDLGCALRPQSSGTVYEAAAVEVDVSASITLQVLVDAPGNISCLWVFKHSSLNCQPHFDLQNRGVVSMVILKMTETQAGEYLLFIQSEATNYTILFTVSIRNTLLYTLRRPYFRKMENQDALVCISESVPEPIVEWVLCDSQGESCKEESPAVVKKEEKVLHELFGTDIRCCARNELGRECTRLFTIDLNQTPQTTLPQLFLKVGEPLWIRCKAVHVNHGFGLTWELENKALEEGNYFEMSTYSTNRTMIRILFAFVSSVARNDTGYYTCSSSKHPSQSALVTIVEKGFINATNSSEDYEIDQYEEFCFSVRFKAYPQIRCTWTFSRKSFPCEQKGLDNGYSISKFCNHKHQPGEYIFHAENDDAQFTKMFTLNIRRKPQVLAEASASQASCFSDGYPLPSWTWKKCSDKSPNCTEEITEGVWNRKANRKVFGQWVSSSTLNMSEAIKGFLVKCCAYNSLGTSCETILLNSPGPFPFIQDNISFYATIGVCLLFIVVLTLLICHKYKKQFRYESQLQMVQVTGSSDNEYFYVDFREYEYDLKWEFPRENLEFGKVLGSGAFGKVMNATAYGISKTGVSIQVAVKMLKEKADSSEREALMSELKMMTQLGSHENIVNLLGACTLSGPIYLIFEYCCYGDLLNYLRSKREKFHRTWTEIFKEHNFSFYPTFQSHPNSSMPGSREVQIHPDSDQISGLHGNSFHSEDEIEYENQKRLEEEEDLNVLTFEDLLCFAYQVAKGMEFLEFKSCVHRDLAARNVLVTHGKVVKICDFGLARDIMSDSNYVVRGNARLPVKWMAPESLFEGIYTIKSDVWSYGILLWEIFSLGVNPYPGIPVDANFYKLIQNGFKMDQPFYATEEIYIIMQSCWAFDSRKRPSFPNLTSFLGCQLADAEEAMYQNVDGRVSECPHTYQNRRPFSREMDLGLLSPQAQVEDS
As to the kind of experiment: Kinase inhibition. The assay is classed as biochemical.

The target in the next assay is FLT4 (Homo sapiens, UniProt P35916). As to the kind of experiment: Kinase inhibition. The format is biochemical.
Assay [2] has as its system Ba/F3 KIF5B-RET^G810R cells. Description: Ba/F3 KIF5B-RET G810R subcutaneous tumor model, second study. The assay is classed as in vivo, mouse. Conditions: for tumor regrowth: 30 mg/kg bid, day 15.
The mark [3] stands for this setting: read-out: IC50 kinase inhibition, PDGFRβ.
Setting [4] is: read-out: IC50 kinase inhibition, FGFR3.
[5] abbreviates: read-out: IC50 kinase inhibition, JAK1.
Setting [6] is: read-out: IC50 kinase inhibition, FGFR1.
Setting [7] is: read-out: IC50 kinase inhibition, DDR2.
Setting [8] is: read-out: IC50 kinase inhibition, FGFR2.
The mark [9] stands for this setting: read-out: IC50 kinase inhibition, DDR1.
The mark [10] stands for this setting: read-out: IC50 kinase inhibition, JAK2.
Setting [11] is: read-out: IC50 kinase inhibition, PDGFRα.
Setting [12] is: read-out: IC50 kinase inhibition, FLT3.
Setting [13] is: read-out: IC50 kinase inhibition, FLT4.

Where two headings read alike, the source gives them in different places.

Sequence of PDGFRα (P16234 24-1089): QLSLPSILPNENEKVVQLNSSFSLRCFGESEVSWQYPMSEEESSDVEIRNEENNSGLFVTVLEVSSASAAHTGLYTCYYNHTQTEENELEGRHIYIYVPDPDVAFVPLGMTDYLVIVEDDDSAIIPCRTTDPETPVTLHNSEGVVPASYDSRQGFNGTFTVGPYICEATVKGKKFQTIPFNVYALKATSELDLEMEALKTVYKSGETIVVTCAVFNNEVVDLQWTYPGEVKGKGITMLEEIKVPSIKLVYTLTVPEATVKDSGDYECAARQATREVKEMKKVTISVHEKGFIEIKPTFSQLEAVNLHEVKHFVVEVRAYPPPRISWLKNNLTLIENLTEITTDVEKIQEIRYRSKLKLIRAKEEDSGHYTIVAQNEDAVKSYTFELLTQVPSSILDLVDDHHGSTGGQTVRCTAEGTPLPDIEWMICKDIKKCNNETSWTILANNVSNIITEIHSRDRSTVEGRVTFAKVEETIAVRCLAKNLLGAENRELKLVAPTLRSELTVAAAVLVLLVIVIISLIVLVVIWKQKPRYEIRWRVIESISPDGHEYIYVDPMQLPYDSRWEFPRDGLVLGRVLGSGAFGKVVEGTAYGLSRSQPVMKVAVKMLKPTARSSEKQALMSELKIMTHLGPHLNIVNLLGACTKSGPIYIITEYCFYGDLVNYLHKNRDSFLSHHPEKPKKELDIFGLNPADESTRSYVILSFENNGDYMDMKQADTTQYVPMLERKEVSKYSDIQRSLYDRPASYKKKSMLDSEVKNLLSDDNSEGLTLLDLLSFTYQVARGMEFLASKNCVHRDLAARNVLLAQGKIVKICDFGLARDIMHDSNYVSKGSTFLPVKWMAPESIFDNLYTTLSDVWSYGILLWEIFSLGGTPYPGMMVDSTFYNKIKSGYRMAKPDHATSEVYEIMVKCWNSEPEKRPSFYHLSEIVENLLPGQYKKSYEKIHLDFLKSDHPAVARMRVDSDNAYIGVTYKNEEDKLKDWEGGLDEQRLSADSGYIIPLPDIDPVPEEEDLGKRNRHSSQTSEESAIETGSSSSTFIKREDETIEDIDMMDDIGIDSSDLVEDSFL
Sequence of DDR1 (Q08345 19-913): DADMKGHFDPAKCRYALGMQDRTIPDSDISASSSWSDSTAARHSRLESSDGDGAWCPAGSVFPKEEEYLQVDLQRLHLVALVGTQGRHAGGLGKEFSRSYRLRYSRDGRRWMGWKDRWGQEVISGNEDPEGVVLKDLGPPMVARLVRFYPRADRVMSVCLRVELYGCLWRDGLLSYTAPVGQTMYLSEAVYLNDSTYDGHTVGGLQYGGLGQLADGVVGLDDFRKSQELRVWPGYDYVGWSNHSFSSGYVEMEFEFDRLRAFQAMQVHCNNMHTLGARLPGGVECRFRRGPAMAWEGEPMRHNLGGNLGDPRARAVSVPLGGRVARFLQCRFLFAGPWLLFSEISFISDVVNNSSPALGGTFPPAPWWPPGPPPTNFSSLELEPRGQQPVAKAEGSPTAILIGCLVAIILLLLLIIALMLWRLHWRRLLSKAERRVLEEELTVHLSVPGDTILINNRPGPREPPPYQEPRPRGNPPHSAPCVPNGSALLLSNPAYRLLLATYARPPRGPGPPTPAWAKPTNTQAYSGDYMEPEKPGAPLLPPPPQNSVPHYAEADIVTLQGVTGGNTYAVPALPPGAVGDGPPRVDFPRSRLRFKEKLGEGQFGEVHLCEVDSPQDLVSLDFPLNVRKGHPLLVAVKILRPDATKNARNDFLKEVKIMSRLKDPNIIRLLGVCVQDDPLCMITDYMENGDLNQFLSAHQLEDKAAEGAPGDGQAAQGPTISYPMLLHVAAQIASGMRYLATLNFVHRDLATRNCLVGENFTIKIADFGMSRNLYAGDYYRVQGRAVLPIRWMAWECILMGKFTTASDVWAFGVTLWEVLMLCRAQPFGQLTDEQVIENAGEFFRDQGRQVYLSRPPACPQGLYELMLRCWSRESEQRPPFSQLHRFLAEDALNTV
Sequence of FGFR3 (P22607 23-806): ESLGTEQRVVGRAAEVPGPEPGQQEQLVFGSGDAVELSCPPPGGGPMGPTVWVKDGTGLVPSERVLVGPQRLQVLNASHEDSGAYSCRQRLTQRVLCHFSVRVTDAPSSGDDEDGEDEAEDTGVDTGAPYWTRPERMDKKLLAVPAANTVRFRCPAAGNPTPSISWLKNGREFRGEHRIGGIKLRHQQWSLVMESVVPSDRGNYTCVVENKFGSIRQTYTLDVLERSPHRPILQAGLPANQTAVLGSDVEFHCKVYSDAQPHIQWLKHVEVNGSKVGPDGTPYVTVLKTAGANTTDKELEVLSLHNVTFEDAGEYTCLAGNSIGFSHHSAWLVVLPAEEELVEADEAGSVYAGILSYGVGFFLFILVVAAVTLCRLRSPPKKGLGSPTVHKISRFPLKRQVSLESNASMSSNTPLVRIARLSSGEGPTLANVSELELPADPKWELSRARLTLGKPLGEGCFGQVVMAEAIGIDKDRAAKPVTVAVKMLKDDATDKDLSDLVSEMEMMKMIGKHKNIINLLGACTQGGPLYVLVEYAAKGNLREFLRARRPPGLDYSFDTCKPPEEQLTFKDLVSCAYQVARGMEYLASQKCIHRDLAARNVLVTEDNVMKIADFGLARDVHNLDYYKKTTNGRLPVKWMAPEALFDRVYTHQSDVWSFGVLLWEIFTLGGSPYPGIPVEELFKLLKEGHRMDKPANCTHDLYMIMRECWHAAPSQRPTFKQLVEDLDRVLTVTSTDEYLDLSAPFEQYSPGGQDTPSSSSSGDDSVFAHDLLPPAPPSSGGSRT

For the compound `CO[C@]1(C(=O)N[C@@H](C)c2ccc(-n3cc(F)cn3)nc2)CC[C@H](c2nc(C)cc(Nc3cc(C)[nH]n3)n2)CC1` [BLU-667, pralsetinib], the IC50 worked out at 7.7 nM at PDGFRβ (setting [3]); 58 nM at FGFR3 (setting [4]); 2.6 nM at JAK1 (setting [5]); 15 nM on FGFR1 (setting [6]); 7.7 nM on DDR2 (setting [7]); 35 nM on FGFR2 (setting [8]). For the same compound, the IC50 at DDR1 (setting [9]) came to 7.1 nM; on JAK2 (setting [10]), 1.1 nM; at PDGFRα (setting [11]), 12 nM; on FLT3 (setting [12]), 11 nM; at FLT4 (setting [13]), 6.3 nM. For the same compound, the GI50 with Ba/F3 KIF5B-RET G810S (BaF3, Ba/F3 KIF5B-RET G810S, 72 hours, mean±SD of three experiments) is 50.6 ± 31.4 nM; in the assay on Ba/F3 KIF5B-RET V804M (BaF3, Ba/F3 KIF5B-RET V804M, 72 hours, mean±SD of three experiments), 8.6 ± 0.58 nM. Besides, in assay [1], the “tumor regrowth at the end of the study” value is on record as “trend to tumor regrowth”. In addition, the tumor regrowth entry in [2] was “trend to tumor regrowth at day 15”.
Consider `COCc1ccc(NC(=O)c2c(C#CCN3CCOCC3)n(C3(C)CC3)c3ncnc(N)c23)cc1` [HM06/TAS0953, 4-amino-N-(4-(methoxymethyl)phenyl)-7-(1-methylcyclopropyl)-6-(3-morpholinoprop-1-yn-1-yl)-7H-pyrrolo[2,3-d]pyrimidine-5-carboxamide], for which the half-maximal inhibitory concentration (IC50) was 2760 nM at PDGFRβ; 2150 nM against FGFR3; greater than 3000 nM against JAK1; 2720 nM at FGFR1; greater than 3000 nM at DDR2; 1850 nM on FGFR2. Moreover, the half-maximal inhibitory concentration (IC50) on DDR1 is 1190 nM; at JAK2 it was greater than 3000 nM; on PDGFRα, 735 nM; on FLT3 it was 911 nM; at FLT4, 150 nM. Besides, the GI50 in the assay with Ba/F3 KIF5B-RET G810S (BaF3, 72 h) worked out at 11.9 ± 3.6 nM; with Ba/F3 KIF5B-RET V804M (BaF3, 72 h), 39.7 ± 4.6 nM. Also, the “tumor volume at the end of the study vs control” value in assay [1] (10 mg/kg bid oral) is “significantly decreased tumor volume”. In assay [1], the “tumor regrowth at the end of the study” value is “did not show tumor regrowth”. In addition, the “mean tumor volume on day 15 vs LOXO-292 and BLU-667 30 mg/kg bid” value in assay [2] (50 mg/kg bid) is “significantly lower in the HM06/TAS0953 group than in the LOXO-292 and BLU-667 groups”. Further, the tumor regression result in assay [2] (50 mg/kg bid) is “consistent tumor regression”.
As to `COc1ccc(CN2C3CC2CN(c2ccc(-c4cc(OCC(C)(C)O)cn5ncc(C#N)c45)cn2)C3)cn1` [LOXO-292, selpercatinib], the IC50 on PDGFRβ (setting [3]) is 67 nM; on FGFR3 (setting [4]), 51 nM; at JAK1 (setting [5]) it was greater than 3000 nM; at FGFR1 (setting [6]), 64 nM; at DDR2 (setting [7]) it was 417 nM; on FGFR2 (setting [8]), 34 nM. Besides, the IC50 was 103 nM on DDR1 (setting [9]); greater than 3000 nM at JAK2 (setting [10]); 44 nM at PDGFRα (setting [11]); 22 nM at FLT3 (setting [12]); 4 nM at FLT4 (setting [13]). Also, the 50% growth inhibitory concentration (GI50) in the assay on Ba/F3 KIF5B-RET G810S (BaF3, 72 h) amounted to 166 ± 20 nM; in the assay on Ba/F3 KIF5B-RET V804M (BaF3, 72 h) it was 33.3 ± 2.9 nM. The “tumor regrowth at the end of the study” value in assay [1] is “trend to tumor regrowth”. Further, the tumor regrowth entry in assay [2] is “trend to tumor regrowth at day 15”.
